Laboratory results: patent publication US20090029949A1, “GPCR Ligands Identified by Computational Modeling” (priority 2006, published 2009)

Legend:
S1P1 mutant T5.49G = target: T1, S1P1 mutant T5.49G (Homo sapiens, UniProt P21453, T211G); assay: [35S]GTPγS binding, S1P1 T5.49G; format: biochemical; details: S1P-induced, S1P1 T5.49G in RH7777 cells
T1 construct: expressed in transfected cells; host or cells: RH7777 (transient, pcDNA3.1)
Experimental: (§1) RH7777 and HEK-293 cells (ATCC, Manassas, Va.) were maintained in Dulbecco's modified minimal essential medium (DMEM) containing 10% fetal bovine serum (Hyclone, Logan, Utah). Cells (2×10^6) were transfected with 2 μg of plasmid DNA with Effectene (Qiagen, Valencia, Calif.) according to the manufacturer's instructions, for 24 h. Before ligand binding and receptor activation assays, the cells were washed twice with serum-free DMEM and serum-starved for at least 6 h.
(§2) S1P1 Receptor Activation Assays Receptor functional assays were performed in transiently transfected RH7777 cells by measuring S1P-activated [^35S]GTPγS binding as previously described (28).

S1P1 mutant V6.40L [1] = target: T2, S1P1 mutant V6.40L (Homo sapiens, UniProt P21453, V261L); assay: [35S]GTPγS binding, S1P1 V6.40L; format: biochemical; details: S1P-induced, S1P1 V6.40L in RH7777 cells
T2 construct: expressed in transfected cells; host or cells: RH7777
T2 sequence (P21453 whole entry V261L): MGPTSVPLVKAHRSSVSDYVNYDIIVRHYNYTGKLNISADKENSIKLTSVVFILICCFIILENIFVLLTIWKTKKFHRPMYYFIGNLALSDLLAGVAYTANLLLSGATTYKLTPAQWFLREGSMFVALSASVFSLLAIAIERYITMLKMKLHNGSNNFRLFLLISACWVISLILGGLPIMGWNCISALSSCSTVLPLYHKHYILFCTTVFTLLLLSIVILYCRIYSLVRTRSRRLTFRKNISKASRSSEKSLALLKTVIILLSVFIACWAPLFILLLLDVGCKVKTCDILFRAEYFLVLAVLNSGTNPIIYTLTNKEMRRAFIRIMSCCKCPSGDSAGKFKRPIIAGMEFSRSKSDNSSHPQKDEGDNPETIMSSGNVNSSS
Experimental: as §1, §2

S1P1 mutant V6.40T = target: T3, S1P1 mutant V6.40T (Homo sapiens, UniProt P21453, V261T); assay: [35S]GTPγS binding, S1P1 V6.40T; format: biochemical; details: S1P-induced, S1P1 V6.40T in RH7777 cells
T3 construct: expressed in transfected cells; host or cells: RH7777
T3 sequence (P21453 whole entry V261T): as the sequence (P21453 whole entry V261L) above, with L261T counted along it
Experimental: as §1, §2

S1P1 mutant L5.51E = target: T4, S1P1 mutant L5.51E (Homo sapiens, UniProt P21453, L213E); assay: [35S]GTPγS binding, S1P1 L5.51E; format: biochemical; details: S1P-induced, S1P1 L5.51E in RH7777 cells
T4 construct: expressed in transfected cells; host or cells: RH7777 (transient, pcDNA3.1)
T4 sequence (P21453 whole entry L213E): as the sequence (P21453 whole entry V261L) above, with L213E, L261V counted along it
Experimental: as §1, §2

S1P1 mutant V3.40T = target: T5, S1P1 mutant V3.40T (Homo sapiens, UniProt P21453, V132T); assay: [35S]GTPγS binding, S1P1 V3.40T; format: biochemical; details: S1P-induced, S1P1 V3.40T in RH7777 cells
T5 construct: expressed in transfected cells; host or cells: RH7777 (transient, pcDNA3.1)
T5 sequence (P21453 whole entry V132T): as the sequence (P21453 whole entry V261L) above, with V132T, L261V counted along it
Experimental: as §1, §2

S1P1 mutant V3.40L = target: T6, S1P1 mutant V3.40L (Homo sapiens, UniProt P21453, V132L); assay: [35S]GTPγS binding, S1P1 V3.40L; format: biochemical; details: S1P-induced, S1P1 V3.40L in RH7777 cells
T6 construct: expressed in transfected cells; host or cells: RH7777 (transient, pcDNA3.1)
T6 sequence (P21453 whole entry V132L): as the sequence (P21453 whole entry V261L) above, with V132L, L261V counted along it
Experimental: as §1, §2

S1P1 mutant V6.40L [2] = target: T2, S1P1 mutant V6.40L; assay: [32P]S1P radioligand binding, RH7777 cells, V6.40L; details: radioligand 50 nM, S1P1 V6.40L
Experimental: as §1
The S1P binding assays were done essentially as previously described (28). Transfected RH7777 cells (5×10^5) were incubated at 4° C. in 20 mM Tris-HCl (pH 7.5) binding buffer containing 100 mM NaCl, 15 mM NaF, protease inhibitor cocktail (Sigma-Aldrich), and 0.2 mg/ml essentially fatty-acid free BSA with 1 nM [^32P]S1P in 50 nM S1P for 40 min. Cells were centrifuged and washed twice in binding buffer. The final pellet was resuspended in 2:1 CHCl3/MeOH and the suspension was equilibrated in scintillation fluid overnight. Cell-bound radioactivity was measured by liquid scintillation counting using a Beckman LS5000 TA counter (Beckman Coulter, Irvine, Calif.). Specific binding was defined as the difference between total binding and non-specific binding (in the presence of 2-5 μM cold S1P). Standard errors were computed on the basis of triplicate samples from two simultaneous transfections.

S1P1 mutant T5.45S = target: T7, S1P1 mutant T5.45S (Homo sapiens, UniProt P21453, T207S); assay: [35S]GTPγS binding, S1P1 T5.45S; format: biochemical; details: S1P-induced, S1P1 T5.45S in RH7777 cells
T7 construct: expressed in transfected cells; host or cells: RH7777 (transient, pcDNA3.1)
T7 sequence (P21453 whole entry T207S): as the sequence (P21453 whole entry V261L) above, with T207S, L261V counted along it
Experimental: as §1, §2

S1P1 mutant W6.48A = target: T8, S1P1 mutant W6.48A (Homo sapiens, UniProt P21453, W269A); assay: [32P]S1P competition binding, HEK-293 cells, W6.48A; details: S1P1 W6.48A
T8 construct: expressed in transfected cells
T8 sequence (P21453 whole entry W269A): as the sequence (P21453 whole entry V261L) above, with L261V, W269A counted along it
Experimental: (§3) For the competition assays, HEK-293 cells were used. Briefly, 4×10^5 cells were plated in 24-well dishes and allowed to adhere overnight. The cells were then transfected with 0.4 μg of the cDNA using Lipofectamine 2000 (Invitrogen) and the transfection proceeded for 48 h. After washing the cells twice with ice-cold binding buffer (20 mM Tris-HCl, pH 7.4 and 150 mM NaCl), 0.1 nM [^32P]S1P and competing concentrations of cold S1P (1 nM-10 μM), resuspended in binding buffer+4% BSA, were applied to the cells and incubated on ice for 30 min. After washing the cells twice with ice-cold binding buffer+0.4% BSA, the cells were lysed with 0.5% SDS and equilibrated in scintillation fluid. The samples were measured in triplicate.

S1P1 mutant F5.48G [3] = target: T9, S1P1 mutant F5.48G (Homo sapiens, UniProt P21453, F210G); assay: [32P]S1P competition binding, HEK-293 cells, F5.48G; details: S1P1 F5.48G
T9 construct: expressed in transfected cells
T9 sequence (P21453 whole entry F210G): as the sequence (P21453 whole entry V261L) above, with F210G, L261V counted along it
Experimental: as §3

S1P1 mutant F6.44G = target: T10, S1P1 mutant F6.44G (Homo sapiens, UniProt P21453, F265G); assay: [35S]GTPγS binding, S1P1 F6.44G; format: biochemical; details: S1P-induced, S1P1 F6.44G in RH7777 cells
T10 construct: expressed in transfected cells; host or cells: RH7777
T10 sequence (P21453 whole entry F265G): as the sequence (P21453 whole entry V261L) above, with L261V, F265G counted along it
Experimental: as §1, §2

S1P1 mutant F5.48G [4] = target: T9, S1P1 mutant F5.48G; assay: [35S]GTPγS binding, S1P1 F5.48G; format: biochemical; details: S1P-induced, S1P1 F5.48G in RH7777 cells
Experimental: as §1, §2

S1P1 mutant V6.40A [5] = target: T11, S1P1 mutant V6.40A (Homo sapiens, UniProt P21453, V261A); assay: [35S]GTPγS binding, S1P1 V6.40A; format: biochemical; design: expressed in transfected cells; host or cells: RH7777 (GTPγS); details: S1P-induced, S1P1 V6.40A in RH7777 cells
T11 sequence (P21453 whole entry V261A): as the sequence (P21453 whole entry V261L) above, with L261A counted along it
Experimental: as §1, §2

WT S1P1 = WT S1P1 (Homo sapiens, UniProt P21453); assay: [32P]S1P competition binding, HEK-293 cells, WT-S1P1; details: WT-S1P1, HEK-293 cells
Chain of WT S1P1 (P21453 whole entry): as the sequence (P21453 whole entry V261L) above, with L261V counted along it
Experimental: as §3

S1P1 mutant T5.45G = target: T12, S1P1 mutant T5.45G (Homo sapiens, UniProt P21453, T207G); assay: [35S]GTPγS binding, S1P1 T5.45G; format: biochemical; details: S1P-induced, S1P1 T5.45G in RH7777 cells
T12 construct: expressed in transfected cells; host or cells: RH7777 (transient, pcDNA3.1)
T12 sequence (P21453 whole entry T207G): as the sequence (P21453 whole entry V261L) above, with T207G, L261V counted along it
Experimental: as §1, §2

S1P1 mutant V6.40A [6] = target: T11, S1P1 mutant V6.40A; assay: [32P]S1P competition binding, HEK-293 cells, V6.40A; design: expressed in transfected cells; details: S1P1 V6.40A
Experimental: as §3

[7] = competition with cold S1P, read-out: KD + s.d.

T1 sequence (P21453 whole entry T211G): as the sequence (P21453 whole entry V261L) above, with T211G, L261V counted along it

EC50 (S1P1 mutant T5.49G): 5.4 nM
Emax (S1P1 mutant T5.49G; read-out: % WT Emax + s.d.): 107%
% WT Emax + s.d. (S1P1 mutant V6.40L [1]): ∞
EC50 + s.d. (S1P1 mutant V6.40L [1]): ∞
EC50 (S1P1 mutant V6.40T): 57.3 nM
Emax (S1P1 mutant V6.40T; read-out: % WT Emax + s.d.): 61%
% WT Emax + s.d. (S1P1 mutant L5.51E): ∞
EC50 + s.d. (S1P1 mutant L5.51E): ∞
EC50 (S1P1 mutant V3.40T): 13.8 ± 1.8 nM
Emax (S1P1 mutant V3.40T; read-out: % WT Emax + s.d.): 137%
EC50 (S1P1 mutant V3.40L): 7 ± 4.5 nM
Emax (S1P1 mutant V3.40L; read-out: % WT Emax + s.d.): 55%
[32P]S1P binding relative to WT (S1P1 mutant V6.40L [2]): > 50 % of the WT
EC50 (S1P1 mutant T5.45S): 7.9 nM
Emax (S1P1 mutant T5.45S; read-out: % WT Emax + s.d.): 28%
Bmax (S1P1 mutant W6.48A): 2080 fmol
Kd (S1P1 mutant W6.48A; [7]): 38.5 nM
Bmax (S1P1 mutant F5.48G [3]): 2580 fmol
Kd (S1P1 mutant F5.48G [3]; [7]): 20.2 nM
% WT Emax + s.d. (S1P1 mutant F6.44G): ∞
EC50 + s.d. (S1P1 mutant F6.44G): ∞
% WT Emax + s.d. (S1P1 mutant F5.48G [4]): ∞
EC50 + s.d. (S1P1 mutant F5.48G [4]): ∞
EC50 (S1P1 mutant V6.40A [5]): 14.8 nM
Emax (S1P1 mutant V6.40A [5]; read-out: % WT Emax + s.d.): 69%
Bmax (WT S1P1): 2450 fmol
Kd (WT S1P1; [7]): 38.7 nM
EC50 (S1P1 mutant T5.45G): 30.9 nM
Emax (S1P1 mutant T5.45G; read-out: % WT Emax + s.d.): 96%
Bmax (S1P1 mutant V6.40A [6]): 2040 fmol
Kd (S1P1 mutant V6.40A [6]; [7]): 27.6 nM
Compound: CCCCCCCCCCCCC/C=C/[C@@H](O)[C@@H](N)COP(=O)(O)O [S1P, Sphingosine 1-phosphate]
